Source: ChEMBL document CHEMBL2057073, “Synthesis and structure-activity relationship studies of 1,3-disubstituted 2-propanols as BACE-1 inhibitors” (Bioorg Med Chem Lett, 2012)

Legend:
Cathepsin D = Cathepsin D (Homo sapiens, UniProt P07339); experiment: Inhibition of cathepsin D by FRET assay
Beta-secretase 1 [1] = molecular target: T1, Beta-secretase 1 (Homo sapiens, UniProt P56817); experiment: Inhibition of BACE1 at 25 uM by FRET assay
Beta-secretase 1 [2] = molecular target: T1, Beta-secretase 1; experiment: Inhibition of BACE1 by FRET assay
Beta-secretase 1 [3] = molecular target: T1, Beta-secretase 1; experiment: Inhibition of BACE1 at 50 uM by FRET assay
Beta-secretase 1 [4] = molecular target: T1, Beta-secretase 1; experiment: Inhibition of BACE1 at 100 uM by FRET assay
Homo sapiens = species: Homo sapiens; experiment: Selectivity ratio of IC50 for cathepsin D to IC50 for BACE1

Cathepsin D, sequence (P07339 65-162 limits assumed): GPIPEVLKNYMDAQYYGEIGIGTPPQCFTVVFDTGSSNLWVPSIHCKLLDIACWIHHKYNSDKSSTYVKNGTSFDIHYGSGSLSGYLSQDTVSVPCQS
Cathepsin D, sequence (P07339 169-412 limits assumed): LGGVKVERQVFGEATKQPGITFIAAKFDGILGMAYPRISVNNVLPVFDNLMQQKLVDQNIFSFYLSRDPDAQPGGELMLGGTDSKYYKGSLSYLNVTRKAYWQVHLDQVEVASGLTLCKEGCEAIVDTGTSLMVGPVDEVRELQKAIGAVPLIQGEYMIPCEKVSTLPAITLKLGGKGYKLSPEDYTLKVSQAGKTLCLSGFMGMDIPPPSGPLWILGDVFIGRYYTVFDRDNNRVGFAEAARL
T1 sequence (P56817 whole entry): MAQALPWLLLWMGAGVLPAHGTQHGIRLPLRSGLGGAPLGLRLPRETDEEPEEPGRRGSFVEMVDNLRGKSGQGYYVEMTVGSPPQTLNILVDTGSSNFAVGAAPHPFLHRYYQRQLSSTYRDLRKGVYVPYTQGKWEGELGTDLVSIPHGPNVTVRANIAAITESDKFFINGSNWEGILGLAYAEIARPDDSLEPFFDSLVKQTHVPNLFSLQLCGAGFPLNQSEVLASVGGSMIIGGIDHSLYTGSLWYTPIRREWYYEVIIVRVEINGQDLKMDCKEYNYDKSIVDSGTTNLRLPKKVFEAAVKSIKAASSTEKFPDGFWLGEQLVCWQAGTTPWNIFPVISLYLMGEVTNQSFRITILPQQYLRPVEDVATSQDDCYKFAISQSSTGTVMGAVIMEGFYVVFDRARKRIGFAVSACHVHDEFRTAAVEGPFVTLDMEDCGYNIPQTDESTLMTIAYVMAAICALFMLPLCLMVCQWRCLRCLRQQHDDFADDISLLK

Row | Compound | IC50 (Cathepsin D) [µM] | inhibition (Beta-secretase 1 [1]) [%] | IC50 (Beta-secretase 1 [2]) [µM] | inhibition (Beta-secretase 1 [3]) [%] | inhibition (Beta-secretase 1 [4]) [%] | Ratio IC50 (Homo sapiens)
1 | OC(CSc1ccccc1F)Cn1c2ccccc2c2ccccc21 (stereo not drawn) | > 300 | 67 | 5.36 | 84 | 89 | –
2 | OC(CCn1c2ccccc2c2ccccc21)CSc1ccc2ccccc2c1 (stereo not drawn) | > 300 | – | 4.31 | – | – | –
3 | OC(CSc1ccc2ccccc2c1)CSc1ccc2ccccc2c1 | – | – | > 30 | – | – | –
4 | OC(CSc1ccc2ccccc2c1)C(O)Cn1c2ccccc2c2ccccc21 (stereo not drawn) | – | – | 10.1 | – | – | –
5 | OC(CSc1ccc2ccccc2c1)Cn1c(-c2ccccc2)cc2ccccc21 (stereo not drawn) | > 300 | – | 6.66 | – | – | 50
6 | CCc1ccccc1SCC(O)Cn1c(-c2ccccc2)cc2ccccc21 (stereo not drawn) | – | 60 | 10.3 | 72 | 80 | –
7 | OC(COc1ccc(Cc2ccccc2)cc1)CSc1ccccc1Cl (stereo not drawn) | > 300 | 62 | 9.6 | 73 | 81 | –
8 | OC(CCSc1ccc2ccccc2c1)Cn1c2ccccc2c2ccccc21 (stereo not drawn) | > 300 | – | 6.74 | – | – | –
9 | CCc1cccc2ccn(CC(O)CSc3ccccc3Cl)c12 (stereo not drawn) | > 300 | 65 | 7.52 | 87 | 99 | –
10 | OC(Cn1c2ccccc2c2ccccc21)Cn1c2ccccc2c2ccccc21 | > 300 | – | 0.71 | – | – | > 422
11 | OC(Cn1c2ccccc2c2ccccc21)C(O)Cn1c2ccccc2c2ccccc21 (stereo not drawn) | > 300 | – | 8.82 | – | – | –
12 | OC(CSc1ccccc1Cl)Cn1c2c(c3ccccc31)CCCC2 (stereo not drawn) | > 300 | 68 | 8.28 | 99 | 92 | –
13 | Oc1ccc(SCC(O)COc2ccc(Cc3ccccc3)cc2)cc1 (stereo not drawn) | – | 85 | 10.7 | 100 | 94 | –
14 | Cc1ccccc1SCC(O)Cn1c2c(c3ccccc31)CCC2 (stereo not drawn) | – | 73 | 21.4 | 89 | 92 | –
15 | Oc1ccccc1SCC(O)Cn1c(-c2ccccc2)cc2ccccc21 (stereo not drawn) | – | 87 | 25.4 | 102 | 86 | –
16 | c1ccc2cc(SCC(Cn3c4ccccc4c4ccccc43)N3CCNCC3)ccc2c1 (racemic) | – | – | > 50 | – | – | –
17 | OC(CSc1ccccc1F)Cn1c2c(c3ccccc31)CCC2 (stereo not drawn) | – | 51 | – | 82 | 94 | –
18 | COc1ccc(SCC(O)Cn2c3c(c4ccccc42)CCC3)cc1 (stereo not drawn) | – | 27 | – | 74 | 85 | –
19 | NC(CSc1ccc2ccccc2c1)Cn1c2ccccc2c2ccccc21 (racemic) | – | – | 15.7 | – | – | –
20 | COc1ccc(SCC(O)Cn2c(C)c(C)c3ccccc32)c(OC)c1 (stereo not drawn) | – | 0 | – | 37 | 83 | –

Next, values leading:

Row | IC50 (Cathepsin D) [µM] | inhibition (Beta-secretase 1 [1]) [%] | IC50 (Beta-secretase 1 [2]) [µM] | inhibition (Beta-secretase 1 [3]) [%] | inhibition (Beta-secretase 1 [4]) [%] | Ratio IC50 (Homo sapiens) | Compound
21 | > 300 | – | 7.98 | – | – | – | O[C@@H](CSc1ccc2ccccc2c1)Cn1c2ccccc2c2ccccc21
22 | > 300 | 64 | 4.93 | 74 | 76 | 50 | OC(CSc1ccc2ccccc2c1)Cn1c2ccccc2c2ccccc21 (stereo not drawn)
23 | – | 72 | 13.6 | 77 | 86 | – | Oc1ccc(SCC(O)Cn2c(-c3ccccc3)cc3ccccc32)cc1 (stereo not drawn)
24 | – | 68 | 11 | 86 | 95 | – | OC(CSc1ccccc1F)Cn1c2c(c3ccccc31)CCCC2 (stereo not drawn)
25 | > 300 | – | 7.52 | – | – | – | c1ccc2cc(SCCCn3c4ccccc4c4ccccc43)ccc2c1
26 | – | – | > 100 | – | – | – | OC(CCn1c2ccccc2c2ccccc21)Cn1c2ccccc2c2ccccc21 (stereo not drawn)
27 | – | 58 | 15.2 | 90 | 87 | – | COc1ccc(SCC(O)Cn2c3c(c4ccccc42)CCCC3)cc1 (stereo not drawn)
28 | – | 69 | 36.1 | 87 | 100 | – | Nc1cccc(SCC(O)Cn2c3ccccc3c3ccccc32)c1 (stereo not drawn)
29 | – | – | > 80 | – | – | – | O=C(CSc1ccc2ccccc2c1)Cn1c2ccccc2c2ccccc21
30 | – | 53 | – | 81 | 96 | – | OC(CSCCCc1ccccc1)Cn1c2c(c3ccccc31)CCC2 (stereo not drawn)
31 | > 300 | – | 7.38 | – | – | – | NCCNC(CSc1ccc2ccccc2c1)Cn1c2ccccc2c2ccccc21 (racemic)
32 | – | – | 10.5 | – | – | – | OC(CSc1ccc2ccccc2c1)Cn1ccc2ccccc21 (stereo not drawn)
33 | – | 79 | – | 85 | 86 | – | OC(CSc1ccccc1)Cn1c2ccccc2c2ccccc21 (stereo not drawn)
34 | > 300 | – | 5.39 | – | – | – | O[C@H](CSc1ccc2ccccc2c1)Cn1c2ccccc2c2ccccc21
35 | – | 43 | – | 76 | 84 | – | COc1ccc(SCC(O)Cn2ccc3ccccc32)c(OC)c1 (stereo not drawn)
